Here are results for 3 substances from patent US20100168033A1, “UNACYLATED GHRELIN AS THERAPEUTIC AGENT IN THE TREATMENT OF METABOLIC DISORDERS” (ALIZE PHARMA SAS, priority 2007, published 2010).

“Also recorded” adds a separate entry of the source. Like-named read-outs stand apart in the source and are kept apart here. No end group written: not given here.

Test [1] relates to HIT-T15 β-cells. Briefly: Insulin secretion in HIT-T15 β-cells. The test is classed as cell-based, hamster. The settings on record: data not shown. How it is done: Insulin secretion—HIT-T15 cells were plated at density of 5×10^5 cells into 100-mm dishes and serum starved for 24 h before incubation for 1 h at 37° C. in HEPES-buffered Krebs-Ringer bicarbonate buffer (KRBH), containing 0.5% BSA with 1.25 mM glucose. The medium was changed and the cells were incubated again for 1 h in KRBH/0.5% BSA containing 1.25, 7.5 or 15 mM glucose. Following acid ethanol extraction of the hormone, secreted insulin was quantitated by a radioimmunoassay kit (Linco Research, Labodia, Yens, Switzerland) which recognizes human insulin and cross reacts with rat insulin.

Test [2] concerns human pancreatic islets. Briefly: Insulin secretion in human pancreatic islets. The test is classed as cell-based. The note with it: peptide 100 nM; glucose absent or 2 to 25 mM. How it is done:
The effects of UAG (1-14) and UAG (1-18), both used at 100 nM, were investigated on insulin secretion in human islets. […] UAG (1-28) and Exendin-4 were used as positive controls (FIGS. 8C and 8D).

The subject of test [3] is HIT-T15 β-cells. Type of test: cell-based. How it is done:
MTT experiments were also performed in hamster HIT-T15 β-cells, to test the survival effect of UAG (1-28) or its fragments UAG (1-14), UAG (1-18), UAG (1-5) and UAG (17-28) in serum deprived medium, either alone or with IFN-γ/TNF-α/IL-1β. As for the experiments performed on INS-1E β-cells, the peptides were tested at increasing concentrations, ranging from 0.1 nM to 100 nM.
The survival effect of UAG (6-13), UAG (8-13), UAG (8-12), UAG (8-11), UAG (9-12) and UAG (9-11) was assessed in cytokine-treated HIT-T15 β-cells.
The protective effects of peptides UAG (8-13) and UAG (8-12) were found similar to those of UAG (1-14) and UAG (1-18) A peptide made of the inverse sequence of UAG (1-14) and named UAG (14-1), was used as negative control for these experiments (FIG. 5A). […] These effects were however lower than those of UAG (6-13) (FIG. 5B).
UAG fragments with alanine (Ala) substitutions at different amino acid positions (6 to 13) were tested with regards to their survival effects in HIT-T15 hamster β-cells. The cells were cultured in serum deprived medium, either alone or with IFN-γ/TNF-α/IL-1β. The peptides were tested at the concentrations of 1 nM to 100 nM. […] Under treatment with cytokines, where cell survival was reduced by ≈18% with respect to serum starved conditions, all Ala substitutions, except those at positions 10 and 11, completely reversed cell death and brought the survival rate to levels that were even higher than those under serum-free conditions, at both 1 nM and 100 nM concentrations. These effects, were similar to those elicited by the original peptide UAG (6-13) (FIG. 11B).
Particularly, the best effect was exerted by Gly 6-UAG (6-13), whereas the lowest was seen using AcSer 6-UAG (6-13), AcSer 6-(D)Pro 7-UAG (6-13) (FIG. 12B).
(§1) Cell culture—Hamster HIT-T15 insulin-secreting β-cells were obtained and cultured as described (Refs. 14, 4). INS-1E rat β-cells were kindly provided by Prof. Claes B. Wollheim (University Medical Center, Geneva, Switzerland) and cultured as described (Refs. 14, 4). Cell culture reagents were from Invitrogen (Milano, Italy). Cytokines were from Biosource (Invitrogen, Italy).
(§2) Cell survival assay—Cell survival was assessed by 3-[4,5-dimethylthiazol-2-yl]-2,5 diphenyltetrazolium bromide (MTT) as described previously (Ref. 4). Cells were seeded on 96-well plates at a density of 5×10^3 cells/well. After treatments, cells were incubated with 1 mg/ml MTT for ≈1 h. The medium was aspirated, and the formazan product solubilized with 100 μl DMSO. Viability was assessed by spectrophotometry at 570 nm absorbance using a 96-well plate reader.

In test [4] the test system is human pancreatic islets. Briefly: MTT cell survival assay in human pancreatic islets. The test is classed as cell-based. The settings on record: 1 nM to 100 nM. How it is done: The survival effect of UAG (1-14), UAG (1-18), UAG (1-5) and UAG (17-28), with respect to that of full length UAG (1-28), was assessed in human pancreatic islets by MTT. The peptides were tested in islet cells cultured in serum deprived medium, either alone or with IFN-γ/TNF-α/IL-1β (5 ng/ml each).
Human islet isolation—Human islets were obtained from pancreases of multiorgan donors as described (Ref. 4). Islet preparations with purity >70%, not suitable for transplantation, were provided by European Consortium for Islet Transplantation (ECIT) “Islets for Research Distribution Program,” Transplant Unit, Scientific Institute San Raffaele, Vita-Salute University, Milan. Islets (10,000) were cultured in CMRL (Invitrogen) with 10% FBS.
as §2
(In general: Formazan colour is commonly taken as a measure of viable cells.)

Another test relates to INS-1E β-cells. Briefly: MTT cell survival assay in INS-1E β-cells. The note with it: peptides 0.1 nM to 100 nM. The test is classed as cell-based, rat. How it is done:
The peptides were tested at increasing concentrations, ranging from 0.1 nM to 100 nM.
as §1, §2

Test [5] deals with UAG receptor on INS-1E pancreatic β-cells. Briefly: [125I-Tyr4]-UAG competition binding, INS-1E membranes. Further details: species or system rat. The note with it: INS-1E cells. How it is done: (§3) The ability of the fragment UAG (6-13) to compete in a concentration-dependent manner with [^125I-Tyr^4]-UAG for HIT-T15 (FIG. 10A) and INS-1E (FIG. 10B) binding sites was assayed. As shown in FIGS. 10A and 10B, unlabelled UAG (1-28) and UAG (6-13) competed with a similar efficacy and in a concentration-dependent fashion with [^125I-Tyr^4]-UAG for such binding sites in both cell lines.
(§4) Binding assay—Membranes from hamster HIT-T15 and rat INS-1E to pancreatic β-cells were prepared and assayed for the presence of [^125I-Tyr^4]-UAG binding. The ability of UAG fragments to compete with the radioligand for such binding sites has been evaluated as previously described (Ref. 4). Data are presented as mean±S.E.M. of three independent experiments.

The subject of test [6] is UAG receptor on HIT-T15 pancreatic β-cells. Briefly: [125I-Tyr4]-UAG competition binding, HIT-T15 membranes. Details: species or system hamster. The note with it: HIT-T15 cells. How it is done: as §3, §4
The mark [7] stands for this setting: serum deprived medium with IFN-γ/TNF-α/IL-1β.

Take “exendin-4: positive control for insulin secretion, from Phoenix Pharmaceuticals [reference compound]”: the glucose-induced insulin secretion result with HIT-T15 β-cells [1] is listed as “significantly increased glucose-induced insulin secretion”. In addition, the insulin secretion entry in the test with human pancreatic islets [2] is “significantly increased insulin secretion both in the absence and presence of glucose”.
In the case of GSSFLSPEHQRVQQRKES [UAG (1-18)], the “cell survival (MTT)” value in the test on HIT-T15 β-cells [3] (serum deprived medium alone) is “significantly increased cell viability”; in the test on HIT-T15 β-cells [3] (setting [7]), “significantly increased cell viability”; in the test with human pancreatic islets [4] (serum deprived medium alone), “significantly increased cell survival at 1 nM and 10 nM”; with INS-1E β-cells (setting [7]), “more potent than full length UAG (1-28)”; with INS-1E β-cells (serum-free medium), “significant survival effect, comparable to that of UAG (1-28)”. For the same substance, the insulin secretion result with human pancreatic islets [2] is given as “significant effect with 7.5 mM glucose”.
For the substance GSSFLSPEHQRVQQ [UAG (1-14)], the “cell survival (MTT)” value in the test on HIT-T15 β-cells [3] (serum deprived medium alone) was “significantly increased cell viability”; in the test on HIT-T15 β-cells [3] (setting [7]) it was “significantly increased cell viability”; in the test on human pancreatic islets [4] (serum deprived medium alone), “significantly increased cell survival in serum deprived medium at 10 nM and 100 nM”; with human pancreatic islets [4] (serum deprived medium with IFN-γ/TNF-α/IL-1β (5 ng/ml each)) it was “prevented cell death at 100 nM”; with INS-1E β-cells (setting [7]) it was “more potent than full length UAG (1-28); also recorded: even stronger than native UAG”; in the test on INS-1E β-cells (serum-free medium), “significant survival effect, comparable to that of UAG (1-28)”. The “binding to the UAG receptor” value in test [5] was “recognized and bound to the UAG receptor”; in test [6], “recognized and bound to the UAG receptor”. Further, in the test with HIT-T15 β-cells [1], the glucose-induced insulin secretion entry was “significantly increased glucose-induced insulin secretion”. In addition, the insulin secretion result in the test with human pancreatic islets [2] was “significantly increased insulin secretion both in the absence and presence of glucose”.
